What all share (assay type): cell-based
The subject of test [1] is Porphyromonas gingivalis. Description: MIC (minimum inhibitory concentration) study, 96 well microtiter plates. Particulars: P. gingivalis, 48 hours at 37° C., turbidity at 660 nm. As for the experimental part:
(§1) In vitro tests were conducted with a gram positive supragingival plaque bacterium, Streptococcus mutans. In addition, two subgingival plaque bacteria associated with oral malodor were tested, Porphyromonas gingivalis and Fusobacterium nucleatum. The MIC (Minimum Inhibitory Concentrations) study protocol is as follows. Chlorhexidine was used as a positive control and sterile water was used as a negative control. Geraniol was suspended in 10% methanol with 3.8% Tween 80. […] 96 well microtiter plates were used for this study. Each well contained 5×10^5 colony forming units/ml of bacteria, serially diluted agents and bacterial growth medium. All bacterial cultures were incubated at 37° C. and stationary. Bacterial growth was estimated spectrophotometrically at 660 nm, after 48 hours. The MIC for each test bacteria was defined as the minimum concentration of test compound limiting turbidity to <absorbance at 660 nm.

Test [2] concerns Fusobacterium nucleatum. Described as above. The conditions noted are these: F. nucleatum, 48 hours at 37° C., turbidity at 660 nm. As for the experimental part:
as §1

Test [3] has as its system Porphyromonas gingivalis. Description: MBC (minimum bactericidal concentration) determination, plating on blood agar. The conditions noted are these: P. gingivalis, lowest concentration that killed at least 99.9% of initial inoculum. As to the method: as §1, with “[…]. The MBC (Minimum bactericidal concentrations) were determined using the 96 well microtiter plate serial dilutions as described above for MIC studies. Serial dilution of cultures in wells showing no visible growth were performed and 10 microliters of culture were plated in triplicate on blood agar plates. Viable colonies were scored after incubation of the plates for 48 hours at 37° C. For each test bacterium, the number of CFU/ml were determined in the initial inoculum. The MBC was defined as the lowest concentration of a test compound that killed at least 99.9% of the cells present in the initial inoculum.” for “nm.”

Test [4] has as its system Fusobacterium nucleatum. Described as above. The conditions noted are these: F. nucleatum, lowest concentration that killed at least 99.9% of initial inoculum. As to the method: as §1, with “[…]. The MBC (Minimum bactericidal concentrations) were determined using the 96 well microtiter plate serial dilutions as described above for MIC studies. Serial dilution of cultures in wells showing no visible growth were performed and 10 microliters of culture were plated in triplicate on blood agar plates. Viable colonies were scored after incubation of the plates for 48 hours at 37° C. For each test bacterium, the number of CFU/ml were determined in the initial inoculum. The MBC was defined as the lowest concentration of a test compound that killed at least 99.9% of the cells present in the initial inoculum.” for “nm.”

Test [5] concerns Streptococcus mutans. Description: MIC (minimum inhibitory concentration) study, 96 well microtiter plates. The conditions noted are these: S. mutans, 48 hours at 37° C., turbidity at 660 nm. As for the experimental part: as §1
The test system of test [6] is Streptococcus mutans. Description: MBC (minimum bactericidal concentration) determination, plating on blood agar. The conditions noted are these: S. mutans, lowest concentration that killed at least 99.9% of initial inoculum. As to the method: as §1, with “[…]. The MBC (Minimum bactericidal concentrations) were determined using the 96 well microtiter plate serial dilutions as described above for MIC studies. Serial dilution of cultures in wells showing no visible growth were performed and 10 microliters of culture were plated in triplicate on blood agar plates. Viable colonies were scored after incubation of the plates for 48 hours at 37° C. For each test bacterium, the number of CFU/ml were determined in the initial inoculum. The MBC was defined as the lowest concentration of a test compound that killed at least 99.9% of the cells present in the initial inoculum.” for “nm.”

In brackets after ≈: the same amount, converted by molar mass.

In the case of `[H]/N=C(\N/C(=N/[H])NCCCCCCNC(=N)NC(=N)Nc1ccc(Cl)cc1)Nc1ccc(Cl)cc1` [Cholorhexidine, Chlorhexidine, reference compound], the MIC in test [1] and in test [2] was 1.25 µg/mL (≈ 2.47 µM) throughout. Also, the MBC in test [3] and in test [4] was 1.25 µg/mL (≈ 2.47 µM) in each case.

As for `CC(C)=CCC/C(C)=C/CO` [geraniol], the results for the MIC in test [5], in test [1] and in test [2] were 500 µg/mL (≈ 3240 µM), 125 µg/mL (≈ 810 µM) and 125 µg/mL (≈ 810 µM), respectively. Besides, the MBC (usually the smallest concentration meeting the test's criterion for killing) in test [6] stood at 250 µg/mL (≈ 1620 µM); in test [3], 125 µg/mL (≈ 810 µM); in test [4] it was 125 µg/mL (≈ 810 µM).
